Source: patent US12427346B2, “P62 ligand compound, and composition for preventing, ameliorating or treating proteinopathies comprising the same” (AUTOTAC INC., priority 2018, dated 2025)
Counter-ions that a name gives are not always drawn.

Assays:
LC3 [1] = assay: Autophagy activity in cultured cells by immunoblotting, treatment time (Experimental Example 3); type: cell-based, human; conditions: HeLa cells; 5 μM for 1, 3, 6, 12, 24, 48 hours or 10 μM for 24 hours; immunoblot, FIG. 4
Experimental: In order to investigate the autophagy activity efficacy by the compounds (Examples 1-25), immunoblotting was performed in the same manner as in Experimental Example 2 using LC3 as a marker. As for the difference, in order to evaluate the treatment time required for activation and the activity retention time, 5 μM of the representative compounds selected among the present compounds (Example 5 (YTK-1005), Example 6 (YTK-1205), Example 7 (YTK-1305), Example 2 (YTK-2205), Example 3 (YTK-3305), Example 14 (YTK-1108), Example 8 (YTK-105), Example 9 (YTK-205)) were treated for 1, 3, 6, 12, 24, 48 hours. On the other hand, 10 μM of the representative compounds selected among the present compounds (Example 10 (YT 5-1), Example 11 (YT 5-2), Example 16 (YT 8-8), Example 15 (YT 8-7), Example 17 (YTK-107), Example 18 (YTK-207), Example 20 (ATB10041), Example 21 (ATB10042), Example 22 (ATB10043), Example 23 (ATB10044), Example 24 (ATB10045), Example 25 (ATB10046)) were treated for 24 hours.

p62 protein = target: T1, p62 protein (Homo sapiens, UniProt Q13501); assay: Oligomerization activity of p62 protein by immunoblotting (Experimental Example 1); type: cell-based; conditions: HEK293 cell lysate treated with test compounds at room temperature for 2 hours; immunoblot, FIG. 2
T1 construct: endogenous in cells; host or cells: HEK293 (lysate treated with compounds)
T1 sequence (Q13501 whole entry): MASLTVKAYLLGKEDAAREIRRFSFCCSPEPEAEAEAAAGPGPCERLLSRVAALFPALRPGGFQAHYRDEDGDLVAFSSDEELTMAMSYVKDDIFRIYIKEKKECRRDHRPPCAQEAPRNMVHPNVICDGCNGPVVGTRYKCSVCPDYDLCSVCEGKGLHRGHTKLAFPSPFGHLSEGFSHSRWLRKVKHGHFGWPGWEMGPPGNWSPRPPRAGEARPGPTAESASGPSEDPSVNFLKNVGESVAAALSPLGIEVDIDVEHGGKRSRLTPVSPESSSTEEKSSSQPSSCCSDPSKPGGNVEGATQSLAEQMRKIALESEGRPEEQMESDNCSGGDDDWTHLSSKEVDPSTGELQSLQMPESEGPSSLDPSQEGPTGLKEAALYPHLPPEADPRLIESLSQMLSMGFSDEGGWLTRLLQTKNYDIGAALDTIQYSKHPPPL
Excerpt: In order to evaluate the p62 protein oligomerization activity efficacy by the compounds (Examples 1-25), HEK293 cell line, which is human embryonic kidney-derived cell, was collected. As the representative compounds among the present compounds, the compounds of Examples 1, 2, 3, 5, 6, 7, 8, 9, 12, and 13 (Example 10 (YT-5-1), Example 11 (YT-5-2), Example 12 (YT 5-7), Example 13 (YT 5-8), Example 15 (YT-8-7), Example 16 (YT-8-8), Example 17 (YTK-107), Example 18 ([…]), Example 20 (ATB10041), Example 21 (ATB10042), Example 22 (ATB10043), Example 23 (ATB10044), Example 24 (ATB10045) and Example 25 (ATB10046)) were selected. In order to measure intracellular p62 protein activation and oligomerization according to the treatment with these selected representative compounds, the respective cells were dispensed into a 100 pi dish. The cells were collected after further culturing for 24 hours so that the cells were completely attached to the surface of the plate. 100 ul of lysis buffer (20 mM Tris, pH 7.4), 150 mM NaCl, 1% Triton X-100, 2 mM NaF, 2 mM EDTA, 2 mM beta-glycerophosphate, 5 mM sodium orthovanadate, 1 mM PMSF, leupeptin, aprotinin) were injected into each sample and the cells were lysed. Based on the measured total protein concentration, each sample was treated with test compounds at room temperature for 2 hours, and then a sample buffer was added and allowed to react at 95° C. for 10 minutes. 25 ul was taken from the samples after the reaction, and dispensed into each well of acrylamide gel, and then immunoblotting was performed.

LC3 [2] = assay: Autophagy activity of control compounds by immunoblotting (Experimental Example 4); type: cell-based, human; conditions: different concentrations and different times; immunoblot, FIG. 5
Experimental: In order to investigate the autophagy activity efficacy of control compounds, immunoblotting was performed in the same manner as in Experimental Example 2 by using LC3 as a marker. As the control compounds, compounds having the following structure were used.

Row | SMILES | autophagy activity (level of LC3) (LC3 [1]) | p62 protein oligomerization activity (monomer, oligomers and high-molecular aggregates) (p62 protein) | autophagy activity (level of LC3) of control compounds (LC3 [2])
1 | O=C(NCCO)NCc1ccc(OCc2ccccc2)c(OCc2ccccc2)c1 [ATB10041, 1-(3,4-bis(benzyloxy)benzyl)-3-(2-hydroxyethyl)urea] | increasing the autophagy activity | increasing the p62 protein oligomerization activity | 
2 | O=C(CO)NCc1ccc(OCc2ccccc2)c(OCc2ccccc2)c1 [ATB10042, N-(3,4-bis(benzyloxy)benzyl)-2-hydroxyacetamide] | increasing the autophagy activity | increasing the p62 protein oligomerization activity | 
3 | N[C@H](CNCc1ccc(OCc2ccccc2)c(OCc2ccccc2)c1)C(=O)O [ATB10043, (R)-2-amino-3-((3,4-bis(benzyloxy)benzyl)amino)propanoic acid] | increasing the autophagy activity | increasing the p62 protein oligomerization activity | 
4 | NC(=O)CNCc1ccc(OCc2ccccc2)c(OCc2ccccc2)c1 [ATB10044, 2-((3,4-bis(benzyloxy)benzyl)amino)acetamide] | increasing the autophagy activity | increasing the p62 protein oligomerization activity | 
5 | COc1cc(CNCCO)cc(OCc2ccccc2)c1OCc1ccccc1 [ATB10045, 2-((3,4-bis(benzyloxy)-5-methoxybenzyl)amino)ethan-1-ol] | increasing the autophagy activity | increasing the p62 protein oligomerization activity | 
6 | OCCNCc1cc(Cl)c(OCc2ccccc2)c(OCc2ccccc2)c1 [ATB10046, 2-((3,4-bis(benzyloxy)-5-chlorobenzyl)amino)ethan-1-ol] | increasing the autophagy activity | increasing the p62 protein oligomerization activity | 
7 | O=Cc1ccc(OCc2ccccc2)c(OCc2ccccc2)c1 [Example 1101, 3,4-bis(benzyloxy)benzaldehyde] |  |  | do not increase autophagy activity
8 | Oc1ccc(OCc2ccccc2)c(OCc2ccccc2)c1 [Example 1102, 3,4-bis(benzyloxy)phenol] |  |  | do not increase autophagy activity
9 | c1ccc(COc2ccc(OC[C@H]3CO3)cc2OCc2ccccc2)cc1 [Example 1103, (R)-2-((3,4-bis(benzyloxy)phenoxy)methyl)oxirane] |  |  | do not increase autophagy activity
10 | O=Cc1ccc(OCc2ccccc2)c(OCCc2ccccc2)c1 [Example 1201, 4-(benzyloxy)-3-phenethoxybenzaldehyde] |  |  | do not increase autophagy activity
11 | Oc1ccc(OCc2ccccc2)c(OCCc2ccccc2)c1 [Example 1202, 4-(benzyloxy)-3-phenethoxyphenol] |  |  | do not increase autophagy activity
12 | c1ccc(CCOc2cc(OC[C@H]3CO3)ccc2OCc2ccccc2)cc1 [Example 1203, (R)-2-((4-(benzyloxy)-3-phenethoxyphenoxy)methyl)oxirane] |  |  | do not increase autophagy activity
13 | O=Cc1ccc(OCc2ccccc2)c(OCCCc2ccccc2)c1 [Example 1301, 4-(benzyloxy)-3-(3-phenylpropoxy)benzaldehyde] |  |  | do not increase autophagy activity
14 | Oc1ccc(OCc2ccccc2)c(OCCCc2ccccc2)c1 [Example 1302, 4-(benzyloxy)-3-(3-phenylpropoxy)phenol] |  |  | do not increase autophagy activity
15 | O=Cc1ccc(OCc2ccccc2)c(OCCCCc2ccccc2)c1 [Example 1401, 4-(benzyloxy)-3-(4-phenylbutoxy)benzaldehyde] |  |  | do not increase autophagy activity
16 | Oc1ccc(OCc2ccccc2)c(OCCCCc2ccccc2)c1 [Example 1402, 4-(benzyloxy)-3-(4-phenylbutoxy)phenol] |  |  | do not increase autophagy activity
17 | O=Cc1ccc(OCCc2ccccc2)c(OCCc2ccccc2)c1 [Example 2201, 3,4-diphenethoxybenzaldehyde] |  |  | do not increase autophagy activity
18 | Oc1ccc(OCCc2ccccc2)c(OCCc2ccccc2)c1 [Example 2202, 3,4-diphenethoxyphenol] |  |  | do not increase autophagy activity
19 | Oc1ccc(OCCCCc2ccccc2)c(OCCCCc2ccccc2)c1 [Example 4402, 3,4-bis(4-phenylbutoxy)phenol] |  |  | do not increase autophagy activity
20 | OCCCCc1ccc(OCc2ccccc2)c(OCc2ccccc2)c1 [YTK-1105-1, 4-(3,4-bis(benzyloxy)phenyl)butan-1-ol] |  |  | do not increase autophagy activity
21 | OCCNCCNCc1ccc(OCc2ccccc2)c(OCc2ccccc2)c1 [YTK-HCl-1108, 2-((2-((3,4-bis(benzyloxy)benzyl)amino)ethyl)amino)ethan-1-ol] | increasing the autophagy activity |  | 
22 | OCCNCc1ccc(OCc2ccccc2)c(OCCc2ccccc2)c1 [YTK-HCl-1205, 2-((4-(benzyloxy)-3-phenethoxybenzyl)amino)ethan-1-ol] | increasing the autophagy activity |  | 
23 | OCCNCc1ccc(OCc2ccccc2)c(OCCCc2ccccc2)c1 [YTK-HCl-1305, 2-((4-(benzyloxy)-3-(3-phenylpropoxy)benzyl)amino)ethan-1-ol] | increasing the autophagy activity |  | 
24 | OCCNCc1ccc(OCCc2ccccc2)c(OCCc2ccccc2)c1 [YTK-HCl-2205, 2-((3,4-diphenethoxybenzyl)amino)ethan-1-ol] | increasing the autophagy activity |  | 
25 | OCCNCc1ccc(OCCCc2ccccc2)c(OCCCc2ccccc2)c1 [YTK-HCl-3305, 2-((3,4-bis(3-phenylpropoxy)benzyl)amino)ethan-1-ol] | increasing the autophagy activity |  | 
